No end group written: not given here.
Experiments:
[1] = target: T1, MGFR portion of the MUC1 receptor and its activating ligand(s) (Homo sapiens, UniProt P15941, R1131P); assay: Colloid-based color-change drug screening assay (His-PSMGFR colloids plus T47D cell lysate); format: binding; conditions: final drug concentration approximately 100 μM
T1 construct: made in house; host or cells: chemical synthesis (synthetic peptide)
T1 sequence (P15941 with tags, fused parts or gaps R1131P): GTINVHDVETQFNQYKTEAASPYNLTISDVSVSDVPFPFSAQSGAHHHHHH
Method: In a typical example, 1.5 ml of commercially available gold colloid (Auro Dye by Amersham) were pelleted by centrifugation in a microfuge on high for 10 minutes. The pellet was resuspended in 100 μL of the storage buffer (sodium citrate and tween-20). 100 μL of a dimethyl formamide (DMF) solution containing thiols. Following a 3-hour incubation in the thiol solution, the colloids were pelleted and the supernatant discarded. They were then heat cycled in 100 μL of 400 μM tri-ethylene glycol-terminated thiol in DMF for 2 minutes at 55° C., 2 minutes at 37° C., 1 minute at 55° C., 2 minutes at 37° C., then room temperature for 10 minutes. Heat cycling results in the elimination of any species that are not in the lowest energy confirmation, resulting in a stable, close-packed, self-assembled monolayer. Heat cycling can be carried out with any of a wide variety of self-assembled monolayer-forming species. The colloids were then pelleted and 100 μL 100 mM NaCl phosphate buffer were added. The colloids were then diluted 1:1 with 180 μM NiSO4 in the colloid storage buffer.
Thiols used in coating colloids typically were derived from solutions containing about 40 μM nitrilo tri-acetic acid (NTA)-thiol, and other thiols such as methyl-terminated thiol (HS—(CH2)15 CH3), 40% tri-ethylene glycol-terminated thiol, HS(CH2)11[…], (formula) and 50% poly(ethynylphenyl) thiol (C16H10S).
Colloid aggregation can be sensitively detected by monitoring color change of colloid particles which are initially disperse in suspension. Aggregation results in a color change to blue. No auxiliary signaling entity is necessary. In drug screening, aggregation (or lack thereof) is observed in the presence of candidate drugs.
The following is an example of a working drug screening assay to identify anti-cancer agents. In this example, a histidine-tagged peptide derived from the portion of the MUC1 receptor that remains attached to the cell surface after receptor cleavage (His-PSMGFR) was attached to NTA-nickel-SAM-coated gold colloids. The peptide-presenting colloids were incubated with lysates/supernatants from MUC1 presenting cells that were shown herein to contain ligands that cause dimerization or multimerization of that portion of the MUC1 receptor. This ligand-induced multimerization of the MGFR portion of the receptor causes the attached colloids to be drawn close together, which causes a change in the color of the colloid solution from pink to blue. Drugs that interfere with the binding of activating ligands to the MGFR portion of the receptor cause the solution to remain pink.
Negative control wells contained colloids bound with a random sequence histidine-tagged peptide in place of the MUC1 peptide. […] The well containing colloids that presented the PSMGFR peptide plus T47D cell lysates (Well A) changed color from pink to blue, indicating the presence of a multimerizing ligand. Wells that contained a random sequence peptide (RGD) in place of the PSMGFR peptide (Well B) remained pink. Wells that contained phosphate buffer in place of cell lysate also remained pink (Wells C and D).
T47D cells were trypsinized from a T25 flask, pelleted, resuspended in phosphate buffer, and lysed by sonication to release the ligand into solution. NTA-SAM-coated colloids were bound with the His-PSMGFR peptide:
200 μl NTA-SAM-coated colloids were incubated with 20 μl 100 μM peptide in phosphate buffer for 15 minutes, pelleted to remove unbound peptide, and resuspended in phosphate buffer. […]

T47D cells [2] = assay: Modulation of the inhibitory effect of Etomoxir on cell proliferation by added PSMGFR; format: cell-based, human
Method: The following experiment was performed in triplicate. T47D cells were grown to approximately 30% confluency. […] Then, a synthetic peptide (PSMGFR) was added to the cell growth media under normal cell growth conditions.

K293 cells = assay: Cell proliferation assay, negative control cells treated with drug candidates; format: cell-based, human
Method: (§1) T47D cells, mammary carcinoma cells known to overexpress MUC1, were grown in the wells of an ELISA plate along with K293 cells, human embryonic kidney cells which will serve as the negative control. 100 μl cells in growth media were added to the wells of an ELISA plate and the cells were allowed to adhere overnight. The number of cells in each well on the plate were then counted and recorded. 1 μl of a drug candidate in DMSO was then added to each well of both the T47D cells and the K293 cells. 1 μl DMSO alone was added to control wells. Each well was repeated in triplet. The cells were allowed to grow for 48 hours, the normal doubling time for these cell lines. The number of cells in each well was again counted and recorded. The percent cell growth over this 48-hour period was calculated, and the percent cell growth for wells containing a drug candidate versus DMSO were compared. […] Cell growth in the presence of Etomoxir was […] for T47D cells and 94% for control cells (K293); Cell growth in the presence of L-alpha-methyl-DOPA was 20% for T47D cells and 110% for control cells (K293); Cell growth in the presence of Fusaric acid was 27.7% for T47D cells, and 106.7% for control cells (K293); Cell growth in the absence of any drug (but with an equivalent amount of DMSO added) was 91.3% for T47D cells, and 106.2% for control cells (K293).

T47D cells [3] = assay: Cell proliferation assay, MUC1 tumor cells treated with drug candidates; format: cell-based, human; conditions: for Selective inhibition of proliferation of MUC1-expressing tumor cells over control cells: T47D versus K293, 48 hours; for Cell growth (percent cell growth over 48 hours): T47D cells
Method: as §1

[4] = tested on: MUC1 receptor fragments (self-aggregation); assay: Colloid color-change self-aggregation assay of MUC1-derived peptides; format: binding, human; conditions: peptide on NTA-Ni colloids
Method: Histidine-tagged peptides were synthesized with the sequences shown in table 1 (the various regions of MUC1). The lyophilized peptides were dissolved in DMSO to give a final concentration of 5 mM. A stock solution of each peptide was made by dissolving 4 μl 5 mM DMSO stock in 196 μl Phosphate-Buffered-Saline (PBS) for a resulting concentration of 100 μM. 20 μl of each 100 μM peptide solution was added to 100 μl colloids presenting NTA-Ni to capture the histidine tag of the peptides. The colloids were incubated with the histidine-tagged peptides at room temperature for 10 minutes to allow binding of the histidine-tags to the NTA-Ni on the surface of the colloids. 20 μl aliquots of each peptides species on colloids was then mixed with 20 μl of every other peptide species and with 60 μl of phosphate buffer pH 7.4. The color change of the colloid solutions was recorded after 15 minutes, see FIG. 2. Row A contains the His-PSIBR (primary sequence interchain binding region) peptide; Row B contains the His-TR peptide; Row C contains the His-RM2 peptide; Row D contains the His-PSMGFR peptide. Column 1 contains the His-PSIBR peptide; Column 2 contains the His-TR peptide; Column 3 contains the His-RM2 peptide; and Column 4 contains the His-PSMGFR peptide. […] During this period, the set of colloids incubated with the His-PSIBR peptide changed color from pink to blue. Only the well of Row A, Column 1, which is the cross section of PSIBR with itself, turned from pink to blue within the first 10 minutes.
The colloid sets were centrifuged to form a pellet and were resuspended in phosphate buffer. […] Since there was only one peptide species on the colloids, the binding interaction must be the PSIBR peptide binding to itself. The other sets of colloids bound to peptides were assayed for their interaction with one another by mixing 15 μl of one colloid type with 15 μl of a second colloid type and 70 μl phosphate buffer.
The peptide was attached to colloid particles presenting NTA thiols, as in other experiments described herein. […]

PSMGFR peptide = target: T2, PSMGFR peptide (Homo sapiens, UniProt P15941, R1131P); assay: Co-elution of drugs with bead-immobilized His-PSMGFR peptide (HPLC / TLC); format: binding; conditions: eluates from NTA-nickel beads analyzed by TLC
T2 construct: made in house; host or cells: chemical synthesis (synthetic peptide)
T2 sequence (P15941 with tags, fused parts or gaps R1131P): T1 sequence (P15941 with tags, fused parts or gaps R1131P)
Method: The His-PSMGFR peptide was attached to NTA-nickel agarose beads then separately incubated with each of the drug candidates. 100 μl beads were bound to saturation with 1 mg peptide, rinsed to remove unbound peptide, and incubated with 25 μl 2.7 mg/ml drug candidate in DMSO for one hour in 5 ml phosphate buffer. Unbound drugs were washed away with phosphate buffer, and the peptide was eluted from the beads with PBS, 250 mM imidazole. If the drug candidate bound to the peptide, it would co-elute with the peptide in the imidazole solution. Peptide-drug complexes were then separated by HPLC. HPLC elution peaks from the complex were compared to the elution peaks from the drug, injected alone, and the PSMGFR peptide alone.
In a similar experiment, eluates from the beads were analyzed by TLC (thin layer chromatography). Two drugs, calcimycin and NS1619 which could be tracked by TLC, because they fluoresced under UV light, were tested. NTA-nickel bead-immobilized peptides were incubated with the drugs as described above, rinsed and eluted from the beads, then rotoevaporated to remove the aqueous buffer. The solid was then resuspended in ethylacetate, 5% methanol and spotted on TLC plates then run in the same organic solvent. […] Calcimycin, gave a clear blue spot under 250 nm UV light and ran at a less polar position (as expected) than the peptide itself. […]

Self-aggregation of colloid-immobilized peptide (color change pink to blue) [4]	Molecule	Interruption of the interaction of MGFR with its ligand(s) (colloid solution stays pink) [1]	Cell growth (percent cell growth over 48 hours) (K293 cells) [%]	other results
–	CCOC(=O)[C@@]1(CCCCCCOc2ccc(Cl)cc2)CO1 [Etomoxir]	interrupt the interaction of MGFR with its ligand(s)	94	Cell proliferation in the presence of drug (T47D cells [2]; approx. 100 micromolar): arrested; Selective inhibition of proliferation of MUC1-expressing tumor cells over control cells (T47D cells [3]): selectively inhibited proliferation of the MUC1-expressing tumor cells over K293 negative control cells
completely free of self-aggregation	His-PSMGFR: Histidine-tagged PSMGFR peptide, SEQ ID NO: 2 (GTINVHDVETQFNQYKTEAASPYNLTISDVSVSDVPFPFSAQSGAHHHHHH; His-PSMGFR peptides)	–	–	–
–	CCCC[C@@]1(C2CCCC2)Cc2cc(OCC(=O)O)c(Cl)c(Cl)c2C1=O [butylindazone]	interrupt the interaction of MGFR with its ligand(s)	–	–
–	O=c1[nH]c2cc(C(F)(F)F)ccc2n1-c1cc(C(F)(F)F)ccc1O [NS1619]	interrupt the interaction of MGFR with its ligand(s)	–	Direct binding to PSMGFR peptide (co-elution, TLC) (PSMGFR peptide): co-eluted with the PSMGFR peptide
self-aggregated	ESMGFR: Histidine-tagged Extended Sequence of MUC1 Growth Factor Receptor, SEQ ID NO: 3 (VQLTLAFREGTINVHDVETQFNQYKTEAASPYNLTISDVSVSDVPFPFHHHHHH; “Extended Sequence of the MUC1 Growth Factor Receptor” (ESMGFR))	–	–	–
–	CNc1ccc2oc(C[C@H]3O[C@@]4(CC[C@H]3C)O[C@H]([C@H](C)C(=O)c3ccc[nH]3)[C@H](C)C[C@H]4C)nc2c1C(=O)O [calcimycin]	interrupt the interaction of MGFR with its ligand(s)	–	Direct binding to PSMGFR peptide (co-elution, TLC) (PSMGFR peptide): co-eluted with the PSMGFR peptide
–	CCCCc1ccc(C(=O)O)nc1 [Fusaric acid]	–	106.7	Cell growth (percent cell growth over 48 hours) (T47D cells [3]): 27.7%
–	C[C@](N)(Cc1ccc(O)c(O)c1)C(=O)O [L-alpha-methyl-DOPA]	interrupt the interaction of MGFR with its ligand(s)	110	Cell growth (percent cell growth over 48 hours) (T47D cells [3]): 20%; Selective inhibition of proliferation of MUC1-expressing tumor cells over control cells (T47D cells [3]): selectively inhibited proliferation of the MUC1-expressing tumor cells over K293 negative control cells
–	PSMGFR: Primary Sequence of the MUC1 Growth Factor Receptor, SEQ ID NO: 7 (GTINVHDVETQFNQYKTEAASPYNLTISDVSVSDVPFPFSAQSGA; Primary Sequence of the MUC1 Growth Factor Receptor (PSMGFR))	–	–	Cell proliferation after adding peptide to Etomoxir-treated cells (T47D cells [2]; Etomoxir approx. 100 micromolar present): increased cell proliferation

Molecule	Self-aggregation of colloid-immobilized peptide (color change pink to blue) [4]	Interruption of the interaction of MGFR with its ligand(s) (colloid solution stays pink) [1]	Cell growth (percent cell growth over 48 hours) (K293 cells) [%]	other results
PSIBR: Primary Sequence of the Interchain Binding Region; tested histidine-tagged, SEQ ID NO: 4 (GFLGLSNIKFRPGSVVVQLTLAFRE; not fully specified (N-terminus); also: tested histidine-tagged, tag position not given here)	self-aggregates in a high affinity interaction	–	–	–
